From patent publication US20260226036A1, “THIOUREA ANTIO[…] NEURO[…]” (priority 2023, published 2026) come the findings set out here.

One data set has as its system SW mice. Kind of data set: Cocaine-conditioned locomotion, expression test. Type of data set: in vivo, mouse. The following applies: Paired mice, cocaine 15 mg/kg 24 h earlier; 10 mg/kg prior to testing. Here is the method:
The goal of this pilot study was to determine if the novel small molecule was effective in preventing cocaine-conditioned motor activity of SW mice. […] Cocaine results in enhanced locomotor activity in mice. Mice that were previously injected with 15 mg/kg cocaine, either in their home cages (Unpaired) or in the novel test environment (Paired), were tested 24 h later.

A further data set has as its system mouse model of CPP. Briefly: Mouse model of CPP. Type of data set: in vivo.
The next data set relates to IL-1β cytokine. Briefly: IL-1β cytokine ELISA of SHSY-5Y supernatants. Particulars: cocaine 1.5 mM or METH 3.5 mM alone; 24 h. It is filed as cell-based, human. Here is the method: Supernatants were collected and the IL-1β cytokine concentration was assessed using ELISA kit and following manufacturer instruction (RayBiotech). […] N=3, p<0.05; p<0.01, One-way ANOVA, GraphPad Prism.
In general terms: In an ELISA, binding on a coated surface is turned into a signal by an enzyme label.

Data set [1] can be described thus: Neuroprotection MTT assay in SHSY5Y cells. It is filed as cell-based, human. The following applies: insult agent alone, HT22 or SHSY5Y cells, not told apart, read-out: cell proliferation (viable cells, MTT); for viability: 24 h. From the text:
MTT assay was used for measuring viable cells at absorbance of 490 nm. […] (FIGS. 5C-5D).
(In general: Tetrazolium dyes change colour on reduction, which living cells bring about.)

The subject of a further data set is methionine synthase (MS). Briefly: Intracellular methionine synthase ELISA of SH-SY5Y cell lysate. The following applies: cocaine 1.5 mM alone; 24 hours; FIG. 6B. It is filed as cell-based, human. Here is the method: Cell lysates were collected and quantified with Pierce™ BCA Protein Assay. Level of intracellular methionine synthase (MS) were assessed using ELISA of the cell lysate.

For a further data set, the system named is catalase (CAT). Briefly: Catalase ELISA in SH-SY5Y cells. Particulars: cocaine 1.5 mM alone; 24 hours. It is filed as cell-based, human. Here is the method: Cell lysates were collected and quantified with Pierce™ BCA Protein Assay. Level of intracellular SOD, catalase, glutathione peroxidase and total antioxidant concentration were assessed using ELISA kits.

As to `CNC(=S)NC` [DMTU, dimethyl thiourea], the “expression of increased (cocaine-conditioned) locomotor activity” value with SW mice was “effective”. For the same compound, the “bioactivity in the mouse model of CPP” value in the data set on mouse model of CPP (5 mg/kg) and with mouse model of CPP (10 mg/kg) was “potent bioactivity” each time.
In the case of `CN[C@@H](C)Cc1ccccc1` [METH, methamphetamine], the IL-1β entry in the data set with IL-1β cytokine is “trend in increase”. Besides, in data set [1], the viability was roughly 50%.
Take `CC(C)(C)OO` [TBHP, t-butyl hydrogen peroxide]: the viability at 24 h in data set [1] is roughly 50%.
`COC(=O)[C@H]1[C@@H](OC(=O)c2ccccc2)C[C@@H]2CC[C@H]1N2C` [cocaine]: the “effect on MS” value with methionine synthase (MS) is reported as “no significant effect”. Further, the viability in data set [1] was roughly 50%. The CAT activity entry in the data set on catalase (CAT) was “no significant effect”.
